# Measurements published in PubChem BioAssay (NCI).
#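 These data come from cells grown in 96-well plates and exposed to compound for 48 hours at five concentrations. GI50: concentration for 50% inhibition of growth. Definition used: TGI = concentration required for complete inhibition of growth.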
# Columns and labels:
# Assay in all cases: growth of human tumour cells (NCI), 48 h
# [1] = tested on: A498 renal
# [2] = tested on: MDA-MB-435
# [3] = tested on: OVCAR-5 ovarian
# [4] = tested on: RXF 393 renal
# [5] = tested on: SK-MEL-5 melanoma
# [6] = tested on: SNB-75 CNS
# [7] = tested on: SW-620 colon
# [8] = tested on: T-47D breast
# [9] = tested on: U251 CNS
# [10] = tested on: UO-31 renal
Compound,GI50 [1] [µM],TGI [1] [µM],GI50 [2] [µM],TGI [2] [µM],GI50 [3] [µM],TGI [3] [µM],GI50 [4] [µM],TGI [4] [µM],GI50 [5] [µM],TGI [5] [µM],GI50 [6] [µM],TGI [6] [µM],GI50 [7] [µM],TGI [7] [µM],GI50 [8] [µM],TGI [8] [µM],GI50 [9] [µM],TGI [9] [µM],GI50 [10] [µM],TGI [10] [µM]
CCCCNC(=O)Oc1ccc(/C(=C(/C)Cc2ccc(OC)cc2)c2ccc(OCCN3CCCC3)cc2)cc1,4.7,18.5,1.63,3.1,3.6,12.7,2.07,3.79,1.66,3.17,1.56,4.5,1.78,3.36,1.39,4.37,1.82,3.31,1.65,3.22
CN(C)CC(C(=O)Cc1ccccc1)c1ccccc1 (centres undefined),12.4,25,3.09,12.2,8.19,22.4,2.39,4.86,11.6,25.2,2.72,11.5,1.79,3.59,1.11,4.91,2.23,5.02,1.69,3.32
CN1CCN(c2nc(NCCCNc3ccnc4cc(Cl)ccc34)c3ccccc3n2)CC1,12.9,25.6,2.09,4.33,4.17,19.1,1.49,3.72,1.78,3.18,5.45,20.7,3.23,12.8,2.39,6.73,3.39,10.3,2.09,5.93
CC(C)CC(Nc1c(O)ccc2ccccc12)C(=O)O (centres undefined),–,67.3,–,45.6,–,> 100,–,35.8,–,38.7,–,> 100,–,> 100,–,> 100,–,> 100,–,> 100
C/C(=N\NC(=S)N1CC2CCC(CC2)C1)c1cccc(C)n1,–,13.2,–,19.6,< 0.0001,15.9,–,14.8,0.287,13.7,–,13.1,0.383,31.8,–,20.6,0.408,11.8,–,4.94
